Measured values: patent US20230227466A1, “SUBSTITUTED THIENOPYRIMIDINES THAT INTERACT WITH THE RAS SUPERFAMILY FOR THE TREATMENT OF CANCERS, INFLAMMATORY DISEASES, RASOPATHIES, AND FIBROTIC DISEASE” (SHY Therapeutics, LLC, priority 2020, published 2023)
Where two headings read alike, the source gives them in different places.

How the values were obtained:
KRas G12C mutant = biological target: T1, KRas G12C mutant (Homo sapiens, UniProt P01116, G12C); assay: Ras GTP binding domain inhibition assay (labeled-GTP competition, cell-free)
T1 construct: made in house
Outline: (§1)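 Labeled-GTP competition read out as bound Cy3/Cy5-GTP fluorescence after washes, with 100 nM tracer for 45 min at RT. Before tracer, compounds at 20 μM, or a dilution series for IC50, sat 3 h at RT on the Ni-immobilized His-tagged GTPase. Sos GEF (10-30 μg/mL) was optionally present for the last hour.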

KRas G12D mutant = biological target: T2, KRas G12D mutant (Homo sapiens, UniProt P01116, G12D); assay: as above
T2 construct: made in house
Outline: as §1

KRas Q61H mutant = biological target: T3, KRas Q61H mutant (Homo sapiens, UniProt P01116, Q61H); assay: as above
T3 construct: made in house
Outline: as §1

[1] = tested on: MIA-PaCa-2 pancreatic cancer cell line (KRAS G12C); assay: Cell proliferation assay (CellTiter 96 Aqueous One); type: cell-based; settings: Homo sapiens; for inhibition at 10 µM: MIA PaCa-2, read-out: % inh cell proliferation (10 μM) in MIA PaCa-2
Outline: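 After overnight attachment, compounds are added (10 μM final or serial dilutions) and left 2–4 days, with viability then measured by MTS.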

Rac-1 = Rac-1 (Homo sapiens, UniProt P63000); assay: Ras GTP binding domain inhibition assay (labeled-GTP competition, cell-free); design: made in house
Outline: as §1

KRas wild type = KRas wild type (Homo sapiens, UniProt P01116); assay: as above; design: made in house
Outline: as §1

Rho-A = Rho-A (Homo sapiens, UniProt P61586); assay: as above; design: made in house
Outline: as §1

[2] = with SOS, read-out: KRas G12C mutant + SOS: % inh.
[3] = without SOS, read-out: KRas G12C mutant: % inh.
[4] = with SOS, read-out: KRas G12D mutant + SOS: % inh.
[5] = without SOS, read-out: KRas G12D mutant: % inh.
[6] = with SOS, read-out: KRas Q61H mutant + SOS: % inh.
[7] = without SOS, read-out: KRas Q61H mutant: % inh.
[8] = without SOS, read-out: Rac-1: % inh.
[9] = with SOS, read-out: KRas wild type + SOS: % inh.
[10] = without SOS, read-out: KRas wild type: % inh.
[11] = without SOS, read-out: Rho-A: % inh.
[12] = with SOS, read-out: Rac-1 + SOS: % inh.
[13] = with SOS, read-out: Rho-A + SOS: % inh.

| inhibition at 20 µM (KRas G12C mutant; [2]) [%] | inhibition at 20 µM (KRas G12C mutant; [3]) [%] | inhibition at 20 µM (KRas G12D mutant; [4]) [%] | inhibition at 20 µM (KRas G12D mutant; [5]) [%] | inhibition at 20 µM (KRas Q61H mutant; [6]) [%] | inhibition at 20 µM (KRas Q61H mutant; [7]) [%] | IC50 ([1]; MIA PaCa-2, MIA PaCa-2) [µM] | inhibition at 20 µM (Rac-1; [8]) [%] | inhibition at 20 µM (KRas wild type; [9]) [%] | inhibition at 20 µM (KRas wild type; [10]) [%] | inhibition at 20 µM (Rho-A; [11]) [%] | IC50 (KRas Q61H mutant; with SOS) [µM] | inhibition at 20 µM (Rac-1; [12]) [%] | inhibition at 20 µM (Rho-A; [13]) [%] | IC50 ([1]; MIA PaCa-2, MIA-PaCa-2, 2-4 days, 10% FBS) [µM] | Compound | inhibition at 10 µM [1] [%] |
| --- | --- | --- | --- | --- | --- | --- | --- | --- | --- | --- | --- | --- | --- | --- | --- | --- |
| 51 to 75 | 76 to 100 | 76 to 100 | 76 to 100 | 51 to 75 | 76 to 100 | 1 to 4.99 | 76 to 100 | 76 to 100 | 76 to 100 | 76 to 100 | – | – | – | – | COc1ccnc(Nc2nc(-c3nccn3C)nc3sc(-c4ccn(C(C)C)n4)c(C)c23)n1 [Compound 68, 6-(1-Isopropyl-1H-pyrazol-3-yl)-N-(4-methoxypyrimidin-2-yl)-5-methyl-2-(1-methyl-1H-imidazol-2-yl)thieno[2,3-d]pyrimidin-4-amine] | 76 to 100 |
| 1 to 25 | 0 | 0 | 51 to 75 | 0 | 0 | 5 to 10 | 0 | 0 | 1 to 25 | 1 to 25 | – | – | – | – | Cc1c(-c2ccn(C(C)C)n2)sc2nc(-c3ccccn3)nc(N3CCC(COC(C)C)C3)c12 (stereo not shown) [Compound 72, 4-(3-(Isopropoxymethyl)pyrrolidin-1-yl)-6-(1-isopropyl-1H-pyrazol-3-yl)-5-methyl-2-(pyridin-2-yl)thieno[2,3-d]pyrimidine] | 51 to 75 |
| 51 to 75 | 51 to 75 | 51 to 75 | 76 to 100 | 51 to 75 | 76 to 100 | 5 to 10 | 51 to 75 | 51 to 75 | 76 to 100 | 51 to 75 | – | – | – | – | COCCn1cnc(-c2nc(O)c3scc(-c4ccccn4)c3n2)c1 [Compound 78, 2-(1-(2-Methoxyethyl)-1H-imidazol-4-yl)-7-(pyridin-2-yl)thieno[3,2-d]pyrimidin-4-ol] | 51 to 75 |
| 51 to 75 | 51 to 75 | 51 to 75 | 51 to 75 | 51 to 75 | 51 to 75 | 1 to 4.99 | 51 to 75 | 51 to 75 | 76 to 100 | 76 to 100 | – | – | – | – | COCCCn1ccnc1-c1nc(O)c2scc(-c3ccccn3)c2n1 [Compound 79, 2-(1-(3-Methoxypropyl)-1H-imidazol-2-yl)-7-(pyridin-2-yl)thieno[3,2-d]pyrimidin-4-ol] | 76 to 100 |
| 51 to 75 | 51 to 75 | 76 to 100 | 76 to 100 | 51 to 75 | 76 to 100 | 1 to 4.99 | 76 to 100 | 51 to 75 | 76 to 100 | 51 to 75 | – | – | – | – | CCOCCn1ccnc1-c1nc(O)c2scc(-c3ccccn3)c2n1 [Compound 80, 2-(1-(2-Ethoxyethyl)-1H-imidazol-2-yl)-7-(pyridin-2-yl)thieno[3,2-d]pyrimidin-4-ol] | 76 to 100 |
| 51 to 75 | 51 to 75 | 76 to 100 | 51 to 75 | 51 to 75 | 51 to 75 | 1 to 4.99 | 76 to 100 | 76 to 100 | 76 to 100 | 76 to 100 | – | – | – | – | Oc1nc(-c2nccn2CCOCC(F)(F)F)nc2c(-c3ccccn3)csc12 [Compound 81, 7-(Pyridin-2-yl)-2-(1-(2-(2,2,2-trifluoroethoxy)ethyl)-1H-imidazol-2-yl)thieno[3,2-d]pyrimidin-4-ol] | 76 to 100 |
| 51 to 75 | 51 to 75 | 51 to 75 | 51 to 75 | 51 to 75 | 51 to 75 | 1 to 4.99 | 76 to 100 | 51 to 75 | 51 to 75 | 51 to 75 | – | – | – | – | CC(C)OCCn1ccnc1-c1nc(O)c2scc(-c3ccccn3)c2n1 [Compound 82, 2-(1-(2-Isopropoxyethyl)-1H-imidazol-2-yl)-7-(pyridin-2-yl)thieno[3,2-d]pyrimidin-4-ol] | 76 to 100 |
| 51 to 75 | 1 to 25 | 51 to 75 | 51 to 75 | 51 to 75 | 26 to 50 | 5 to 10 | 76 to 100 | 26 to 50 | 51 to 75 | 51 to 75 | – | – | – | – | Oc1nc(-c2nccn2CCOCc2ccccc2)nc2c(-c3ccccn3)csc12 [Compound 83, 2-(1-(2-(Benzyloxy)ethyl)-1H-imidazol-2-yl)-7-(pyridin-2-yl)thieno[3,2-d]pyrimidin-4-ol] | 76 to 100 |
| 1 to 25 | 26 to 50 | 26 to 50 | 26 to 50 | 26 to 50 | 26 to 50 | 5 to 10 | 26 to 50 | 1 to 25 | 26 to 50 | 51 to 75 | – | – | – | – | COc1cccn2c(-c3nc(O)c4scc(-c5ccccn5)c4n3)ncc12 [Compound 84, 2-(8-Methoxyimidazo[1,5-a]pyridin-3-yl)-7-(pyridin-2-yl)thieno[3,2-d]pyrimidin-4-ol] | 51 to 75 |
| 0 | 0 | 1 to 25 | 0 | 0 | 0 | > 10 | 1 to 25 | 1 to 25 | 0 | 0 | > 10 | 1 to 25 | 0 | – | CO[C@H]1C[C@@H](Nc2nc(-c3nccn3C)nc3sc(-c4ccn(C(C)C)n4)c(C)c23)C1 [Compound 96, 6-(1-isopropyl-1H-pyrazol-3-yl)-N-((1s,3s)-3-methoxycyclobutyl)-5-methyl-2-(1-methyl-1H-imidazol-2-yl)thieno[2,3-d]pyrimidin-4-amine] | 1 to 25 |
| 76 to 100 | 51 to 75 | 51 to 75 | 51 to 75 | 76 to 100 | 51 to 75 | < 1 | 1 to 25 | 76 to 100 | 51 to 75 | 26 to 50 | 1 to 4.99 | 26 to 50 | 26 to 50 | < 0.4 | CO[C@@H]1CC[C@H](Nc2nc(-c3nccn3C)nc3sc(-c4ccn(C(C)C)n4)c(-c4ccccc4)c23)C1 [Example 4, 6-(1-isopropyl-1H-pyrazol-3-yl)-N-((1S,3R)-3-methoxycyclopentyl)-2-(1-methyl-1H-imidazol-2-yl)-5-phenylthieno[2,3-d]pyrimidin-4-amine] | 76 to 100 |
